PMC3920638, “The Development of Selective Inhibitors of NagZ: Increased Susceptibility of Gram-Negative Bacteria to β-Lactams” (Chembiochem, 2013)
Values after ≈ are worked out from the molar mass of the structure shown. Read-outs that look alike come from different tables or passages of the source.

Columns and labels:
P. aeruginosa PA01 [1] = assay: Minimal inhibitory concentration of β-lactams by serial dilution; conditions: Pseudomonas aeruginosa, PA01, 18 h, standard serial dilution, 18 h at 37°C
Description: Determination of the Minimal Inhibitory Concentration of β-lactams: Cultures were prepared by inoculating Mueller–Hinton broth (5 mL) with a small amount of a glycerol stock of P. aeruginosa PA01 and then were grown at 37°C to an OD600 value of ≈0.5. 96-well plates containing a range of concentrations of β-lactams varying by factors of 2 were prepared. […] These broths were inoculated with the culture (100 μL) and allowed to incubate at 37°C for 18 h. […] All MIC determinations were performed in triplicate.

P. aeruginosa PA01 [2] = assay: Control: 21 alone as inhibitor of bacterial growth; type: cell-based, Pseudomonas aeruginosa; conditions: up to 1 mM (data not shown)
From the text: . […] Of note is that the concentration of 21 required to give rise to the increased susceptibility observed is fivefold less than the concentration of the PUGNAc analogue O-(2-deoxy-2-N-2-ethylbutyryl-D-glucopyranosylidene)amino N-phenylcarbamate (EtBuPUG) used previously to induce a similar effect.[23]

NAGLU [3] = target: T1, NAGLU (Homo sapiens, UniProt P54802); assay: Kinetic analysis of inhibitors against NAGLU; type: biochemical
T1 sequence (P54802 24-743): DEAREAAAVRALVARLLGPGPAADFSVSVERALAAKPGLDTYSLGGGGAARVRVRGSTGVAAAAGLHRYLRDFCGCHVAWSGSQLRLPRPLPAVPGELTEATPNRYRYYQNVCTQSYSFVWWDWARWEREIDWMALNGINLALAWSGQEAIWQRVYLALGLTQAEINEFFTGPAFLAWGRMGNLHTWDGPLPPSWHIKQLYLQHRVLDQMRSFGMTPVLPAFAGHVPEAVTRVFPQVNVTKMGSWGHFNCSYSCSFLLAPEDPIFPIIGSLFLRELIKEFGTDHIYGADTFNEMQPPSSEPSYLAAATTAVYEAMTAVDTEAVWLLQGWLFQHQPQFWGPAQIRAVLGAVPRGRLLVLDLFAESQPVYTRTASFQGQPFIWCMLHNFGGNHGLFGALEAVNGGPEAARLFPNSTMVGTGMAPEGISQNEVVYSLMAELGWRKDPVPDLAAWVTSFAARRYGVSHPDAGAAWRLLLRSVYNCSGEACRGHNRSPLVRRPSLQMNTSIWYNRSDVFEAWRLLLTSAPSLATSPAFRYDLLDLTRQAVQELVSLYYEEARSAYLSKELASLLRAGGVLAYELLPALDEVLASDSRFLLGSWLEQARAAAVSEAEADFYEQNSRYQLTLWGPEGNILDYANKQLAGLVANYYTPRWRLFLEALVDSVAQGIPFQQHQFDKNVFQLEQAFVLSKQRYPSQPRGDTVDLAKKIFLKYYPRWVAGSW
Description: (§1) Kinetic analysis of inhibitors: Assays against O-GlcNAcase, VcNagZ and StNagZ were performed in NaPi buffer (50 mM, NaCl (100 mM), pH 6.5) and for β-hexosaminidase B citrate buffer (50 mM, NaCl (100 mM), pH 4.25) using 4-methylumbelliferyl N-acetyl-β-D-glucosaminide as substrate. For NAGLU, assays were performed in acetate buffer (100 mM, pH 4.3), containing bovine serum albumin (0.5 mgmL^−1) using 4-methylumbelliferyl N-acetyl-α-D-glucosaminide as substrate. Release of 4-methylumbelliferone was monitored continuously using a fluorimeter plate reader for OGA, VcNagZ and StNagZ, and a 30 min stopped-assay procedure was used for β-hexosaminidase B and NAGLU (quenched with fourfold excess of quenching buffer, glycine (200 mM), pH 10.75). For OGA, the inhibitors were preincubated with the enzyme for 10 min before the addition of the substrate. Readings were taken at excitation and emission wavelengths of 368 nm and 450 nm respectively. […] Inhibitors were added at a range of concentrations encompassing their Ki values. The rates at each inhibitor concentration were plotted and the best fit line through the points ascertained. The −1/Ki was taken as the point where the line of best fit intersected with 1/Vmax.

StNagZ = target: T2, StNagZ (Salmonella typhimurium, UniProt Q8ZQ06); assay: Kinetic analysis of inhibitors against StNagZ; type: biochemical; conditions: for S.R. (Ki OGA/Ki StNagZ): selectivity ratio
T2 construct: made in house

O-GlcNAcase (OGA) = target: T3, O-GlcNAcase (OGA) (Homo sapiens, UniProt O60502); assay: Kinetic analysis of inhibitors against O-GlcNAcase; type: biochemical
T3 sequence (O60502 1-916): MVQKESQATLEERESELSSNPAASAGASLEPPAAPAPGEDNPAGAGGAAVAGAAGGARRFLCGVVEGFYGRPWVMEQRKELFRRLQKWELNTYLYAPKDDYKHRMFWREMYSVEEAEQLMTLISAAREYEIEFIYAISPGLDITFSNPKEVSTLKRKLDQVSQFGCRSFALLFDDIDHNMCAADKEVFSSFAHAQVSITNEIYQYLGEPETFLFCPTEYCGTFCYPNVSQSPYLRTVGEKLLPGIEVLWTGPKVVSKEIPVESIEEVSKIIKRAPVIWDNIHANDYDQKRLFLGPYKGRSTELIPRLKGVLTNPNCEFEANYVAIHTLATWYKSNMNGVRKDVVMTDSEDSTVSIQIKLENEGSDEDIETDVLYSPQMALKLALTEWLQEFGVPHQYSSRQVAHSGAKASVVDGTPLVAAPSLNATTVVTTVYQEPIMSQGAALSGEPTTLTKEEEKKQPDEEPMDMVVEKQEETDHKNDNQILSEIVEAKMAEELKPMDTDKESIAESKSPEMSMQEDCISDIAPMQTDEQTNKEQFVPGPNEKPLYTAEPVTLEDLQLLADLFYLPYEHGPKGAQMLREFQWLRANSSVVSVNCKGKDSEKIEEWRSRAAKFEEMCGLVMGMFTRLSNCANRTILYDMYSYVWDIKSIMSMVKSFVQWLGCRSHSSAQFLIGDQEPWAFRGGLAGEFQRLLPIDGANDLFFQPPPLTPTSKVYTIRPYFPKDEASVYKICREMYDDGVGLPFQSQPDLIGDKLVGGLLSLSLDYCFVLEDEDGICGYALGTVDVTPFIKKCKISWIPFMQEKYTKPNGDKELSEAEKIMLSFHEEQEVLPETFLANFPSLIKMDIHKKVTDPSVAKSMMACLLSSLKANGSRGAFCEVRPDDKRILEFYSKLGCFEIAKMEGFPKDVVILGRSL
Description: as §1

β-hexosaminidase B = target: T4, β-hexosaminidase B (Homo sapiens, UniProt P07686); assay: Kinetic analysis of inhibitors against β-hexosaminidase B; type: biochemical
T4 sequence (P07686 122-556): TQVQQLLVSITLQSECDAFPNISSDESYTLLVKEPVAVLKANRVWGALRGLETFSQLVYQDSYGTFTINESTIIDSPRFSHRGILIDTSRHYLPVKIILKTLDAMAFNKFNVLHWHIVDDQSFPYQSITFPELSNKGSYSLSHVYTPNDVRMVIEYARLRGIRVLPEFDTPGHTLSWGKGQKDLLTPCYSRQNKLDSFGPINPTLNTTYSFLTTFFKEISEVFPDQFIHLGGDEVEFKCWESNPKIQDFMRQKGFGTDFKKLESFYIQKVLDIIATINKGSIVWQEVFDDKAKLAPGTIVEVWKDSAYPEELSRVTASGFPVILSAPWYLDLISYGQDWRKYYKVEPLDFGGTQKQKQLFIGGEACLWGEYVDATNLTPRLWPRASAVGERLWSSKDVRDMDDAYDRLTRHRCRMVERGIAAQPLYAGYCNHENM
Description: as §1

VcNagZ = target: T5, VcNagZ (Vibrio cholerae serotype O1, UniProt Q9KU37); assay: Kinetic analysis of inhibitors against VcNagZ; type: biochemical; conditions: for S.R. (Ki OGA/Ki VcNagZ): selectivity ratio
T5 sequence (Q9KU37 1-330): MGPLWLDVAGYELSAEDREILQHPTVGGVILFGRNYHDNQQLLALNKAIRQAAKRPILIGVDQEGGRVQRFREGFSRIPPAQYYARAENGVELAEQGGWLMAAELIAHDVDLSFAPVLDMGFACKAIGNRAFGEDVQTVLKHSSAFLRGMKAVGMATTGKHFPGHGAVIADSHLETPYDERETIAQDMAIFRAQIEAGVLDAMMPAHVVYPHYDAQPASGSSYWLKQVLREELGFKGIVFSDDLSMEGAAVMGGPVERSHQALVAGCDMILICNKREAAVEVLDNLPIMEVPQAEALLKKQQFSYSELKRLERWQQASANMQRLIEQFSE
Description: as §1

NAGLU [4] = target: T1, NAGLU; design: method as in PMID 10833408; conditions: read-out: NAGLU Ki; literature value; cited from earlier work
P. aeruginosa PA01 [5] = assay: Agar diffusion test; type: cell-based, Pseudomonas aeruginosa; conditions: 6 mm filter disks loaded with 30 μg of antibiotic, incubation overnight
[6] = +21 (20 μL of 1 mM in H2O per well)

Row | Structure (SMILES) | MIC (P. aeruginosa PA01 [1]; [6]) [µg/mL] | MIC (P. aeruginosa PA01 [1]; −21) [µg/mL] | effect on bacterial growth rates (P. aeruginosa PA01 [2]) | Ki (NAGLU [3]) [µM] | S.R. (Ki OGA/Ki StNagZ) (StNagZ) | Ki (O-GlcNAcase (OGA)) [µM] | Ki (β-hexosaminidase B) [µM] | Ki (VcNagZ) [µM] | S.R. (Ki OGA/Ki VcNagZ) (VcNagZ) | Ki (StNagZ) [µM] | Ki (NAGLU [4]) [µM] | Clearing radius (P. aeruginosa PA01 [5]; +21) [mm] | Clearing radius (P. aeruginosa PA01 [5]; −21) [mm]
1 | CC1(C)S[C@@H]2[C@H](NC(=O)[C@H](N)c3ccccc3)C(=O)N2[C@H]1C(=O)O [Ampicillin, ampicillin] | 128 (≈ 366 µM) | 512 (≈ 1470 µM) | – | – | – | – | – | – | – | – | – | – | –
2 | CCCC(=O)N[C@H]1CN[C@H](CO)[C@@H](O)[C@@H]1O [Compound 21, 2-Butamido-1,5-imino-1,2,5-trideoxy-D-glucitol] | – | – | no differences in growth rates | > 1000 | >22 | > 500 | 1460 | 9.4 | >53 | – | – | – | –
3 | CCCCCC(=O)N[C@H]1CN[C@H](CO)[C@@H](O)[C@@H]1O [Compound 23, 2-Hexamido-1,5-imino-1,2,5-trideoxy-D-glucitol] | – | – | – | > 1000 | >10 | > 1000 | > 5000 | 1130 | >0.9 | 102 | – | – | –
4 | CC(C)CC(=O)N[C@H]1CN[C@H](CO)[C@@H](O)[C@@H]1O [Compound 25, 1,5-Imino-2-isovaleramido-1,2,5-trideoxy-D-glucitol] | – | – | – | > 1000 | >3.4 | > 1000 | > 5000 | 555 | >1.8 | 294 | – | – | –
5 | CC(=O)N[C@H]1CN[C@H](CO)[C@@H](O)[C@@H]1O [Compound 1, 2-Acetamido-1,5-imino-1,2,5-trideoxy-D-glucitol] | – | – | – | – | 0.94 | 23 | – | 8.5 | 2.8 | 25.2 | 0.45 | – | –
6 | C[C@H]1[C@H](NC(=O)/C(=N\OC(C)(C)C(=O)O)c2csc(N)n2)C(=O)N1S(=O)(=O)O [Aztreonam, aztreonam] | 0.5 (≈ 1.15 µM) | 1 (≈ 2.3 µM) | – | – | – | – | – | – | – | – | – | – | –
7 | CC(C)(O/N=C(\C(=O)N[C@@H]1C(=O)N2C(C(=O)[O-])=C(C[n+]3ccccc3)CS[C@H]12)c1csc(N)n1)C(=O)O [Ceftazidime, ceftazidime] | 0.5 (≈ 0.915 µM) | 2 (≈ 3.66 µM) | – | – | – | – | – | – | – | – | – | 14.3 | 12.2
8 | CCCCC(=O)N[C@H]1CN[C@H](CO)[C@@H](O)[C@@H]1O [Compound 22, 1,5-Imino-1,2,5-trideoxy-2-valeramido-D-glucitol] | – | – | – | > 1000 | >21 | > 1000 | > 5000 | 110 | >9 | 47.3 | – | – | –
9 | CC(C)C(=O)N[C@H]1CN[C@H](CO)[C@@H](O)[C@@H]1O [Compound 24, 1,5-Imino-2-isobutamido-1,2,5-trideoxy-D-glucitol] | – | – | – | 800 | >40 | > 1000 | 670 | 15.8 | – | 24.6 | – | – | –
10 | CCC(=O)N[C@H]1CN[C@H](CO)[C@@H](O)[C@@H]1O [Compound 20, 1,5-Imino-2-propamido-1,2,5-trideoxy-D-glucitol] | – | – | – | 96 | 2.9 | 130 | 61 | 4.2 | 31 | 45.4 | – | – | –
11 | C[C@@H](O)[C@H]1C(=O)N2C(C(=O)O)=C(SCCN=CN)C[C@H]12 [Imipenem, imipenem] | 4 (≈ 13.4 µM) | 8 (≈ 26.7 µM) | – | – | – | – | – | – | – | – | – | 13.3 | 11.9
12 | CO[C@@]1(NC(=O)Cc2cccs2)C(=O)N2C(C(=O)O)=C(COC(N)=O)CS[C@@H]21 [Cefoxitin, cefoxitin] | 512 (≈ 1200 µM) | 2050 (≈ 4790 µM) | – | – | – | – | – | – | – | – | – | – | –
